17 molecules from PubChem BioAssay AID328 (DTP/NCI, 2004) can be followed below.

Several values for one entry are separate records, joined by “and”; a condition that tells them apart may be missing. Equal values may be shown once. Inconclusive results and toxic doses are left out. Non-standard residues stand in square brackets, D forms with d. Residues, ends and D or L forms follow the SMILES beside them. ξ: configuration not given here. *: point of attachment. Cbz = O=C(OCc1ccccc1)*; ξK = NCCCCC(N)C(=O)O

The experiment deals with BDF1 mice, P388 leukemia ip, median survival T/C. The experiment is described as follows: NCI In Vivo Anticancer Drug Screen. Data for tumor model P388 Leukemia (intraperitoneal) in B6D2F1 (BDF1) mice. Particulars: endpoint: median survival time, higher = longer survival. The procedure, abridged: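 Antitumour effect was judged in vivo: survival in drug-treated mice, normalised to that of vehicle-dosed controls, gives the reported T/C.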

The mark [1] stands for this setting: dose: 12.5 mg/kg/injection, schedule: Q01DX009 (ip), vehicle: saline.
Setting [2] is: dose: 25.0 mg/kg/injection, schedule: Q01DX009 (ip), vehicle: saline.
The mark [3] stands for this setting: dose: 50.0 mg/kg/injection, schedule: Q01DX009 (ip), vehicle: saline.
Where [4] appears, read: dose: 100.0 mg/kg/injection, schedule: Q01DX009 (ip), vehicle: saline.
The mark [5] stands for this setting: dose: 100.0 mg/kg/injection, schedule: Q04DX003 (ip), vehicle: saline with Tween-80.
Where [6] appears, read: dose: 200.0 mg/kg/injection, schedule: Q04DX003 (ip), vehicle: saline with Tween-80.
[7] abbreviates: dose: 50.0 mg/kg/injection, schedule: Q04DX003 (ip), vehicle: saline with Tween-80.

Regarding `CC(C)n1cc2c(N)ncnc2n1`, the T/C is, setting by setting: under setting [1], 92 % of control; under setting [2], 92 % of control; under setting [3], 100 % of control and 120 % of control; under setting [4], 100 % of control; (dose: 100.0 mg/kg/injection, schedule: Q04DX003 (ip), vehicle: saline) 92 % of control; (dose: 200.0 mg/kg/injection, schedule: Q04DX003 (ip), vehicle: saline) 100 % of control.
For the molecule `Cc1ccc2nc(-c3ccc(CSC(=N)N)cc3)oc(=O)c2c1`, the T/C is, setting by setting: (dose: 0.78 mg/kg/injection, schedule: Q01DX009 (ip), vehicle: saline with Tween-80) 96 % of control; (dose: 1.56 mg/kg/injection, schedule: Q01DX009 (ip), vehicle: saline with Tween-80) 99 % of control; (dose: 3.12 mg/kg/injection, schedule: Q01DX009 (ip), vehicle: saline with Tween-80) 96 % of control.
Consider `NNc1ncnc2c1ncn2C1OC(CO)C(O)C1O` (stereo unspecified), for which the T/C (dose: 7.5 mg/kg/injection, schedule: Q04DX003 (ip), vehicle: saline) is 90 % of control; the T/C under setting [1] is 109 % of control; the T/C (dose: 15.0 mg/kg/injection, schedule: Q01DX010 (ip), vehicle: saline) was 113 % of control; the T/C (dose: 15.0 mg/kg/injection, schedule: Q04DX003 (ip), vehicle: saline) was 105 % of control; the T/C under setting [2] was 109 % of control; the T/C (dose: 30.0 mg/kg/injection, schedule: Q04DX003 (ip), vehicle: saline) is 105 % of control. Moreover, the T/C by setting is: under setting [3], 113 % of control; (dose: 60.0 mg/kg/injection, schedule: Q01DX010 (ip), vehicle: saline) 154 % of control; (dose: 60.0 mg/kg/injection, schedule: Q04DX003 (ip), vehicle: saline) 120 % of control; (dose: 120.0 mg/kg/injection, schedule: Q04DX003 (ip), vehicle: saline) 105 % of control.
In the case of `OC1COC(O)C(O)C1O` (stereo unspecified), the T/C by setting is: (dose: 250.0 mg/kg/injection, schedule: Q04DX003 (ip), vehicle: saline) 102 % of control; (dose: 500.0 mg/kg/injection, schedule: Q04DX003 (ip), vehicle: saline) 100 % of control; (dose: 1000.0 mg/kg/injection, schedule: Q04DX003 (ip), vehicle: saline) 100 % of control; (dose: 2000.0 mg/kg/injection, schedule: Q04DX003 (ip), vehicle: saline) 111 % of control.
Turning to `COc1cc2nccc3c4ccccc4n(c1=O)c23`, the T/C is 90 % of control (dose: 100.0 mg/kg/injection, schedule: Q01DX010 (ip), vehicle: saline); 90 % of control (dose: 200.0 mg/kg/injection, schedule: Q01DX010 (ip), vehicle: saline); 95 % of control (dose: 400.0 mg/kg/injection, schedule: Q01DX010 (ip), vehicle: saline); 100 % of control (dose: 800.0 mg/kg/injection, schedule: Q01DX010 (ip), vehicle: saline).
For `COC1C(O)CC(=O)OC(C)C/C=C/C=C/C(OC2CCC(N(C)C)C(C)O2)C(C)CC(CC=O)C1OC1OC(C)C(OC2CC(C)(O)C(O)C(C)O2)C(N(C)C)C1O` (stereo unspecified), the T/C is, setting by setting: (dose: 6.25 mg/kg/injection, schedule: Q01DX009 (ip), vehicle: saline with Tween-80) 102 % of control; (dose: 12.5 mg/kg/injection, schedule: Q01DX009 (ip), vehicle: saline with Tween-80) 94 % of control; (dose: 25.0 mg/kg/injection, schedule: Q01DX009 (ip), vehicle: saline with Tween-80) 100 % of control.
With `NCC(=O)NC(CCCCNC(=O)OCc1ccccc1)C(=O)O` (stereo unspecified) (H-Gly-[ξK](Cbz)-OH), the T/C was 106 % of control (dose: 12.5 mg/kg/injection, schedule: Q01DX005 (ip), vehicle: saline with Tween-80) and 104 % of control (dose: 25.0 mg/kg/injection, schedule: Q01DX005 (ip), vehicle: saline with Tween-80).
In the case of `CC(C(=O)O)C(=O)O.[NH-]CC[NH-].[Pt+2]`, the T/C was 167 % of control (dose: 3.13 mg/kg/injection, schedule: Q01DX009 (ip), vehicle: water); 181 % of control (dose: 6.25 mg/kg/injection, schedule: Q01DX009 (ip), vehicle: water); 90 % of control (dose: 12.5 mg/kg/injection, schedule: Q01DX009 (ip), vehicle: water); 214 % of control (dose: 25.0 mg/kg/injection, schedule: Q01DX009 (ip), vehicle: water).
For `C=CCN(CC=C)C(=O)OCC`, the T/C by setting is: under setting [5], 100 % of control; under setting [6], 120 % of control; (dose: 400.0 mg/kg/injection, schedule: Q04DX003 (ip), vehicle: saline with Tween-80) 104 % of control.
As for `CCOC(=O)C[n+]1ccccc1`, the T/C is, setting by setting: under setting [2], 100 % of control; under setting [3], 118 % of control; under setting [7], 90 % of control; (dose: 75.0 mg/kg/injection, schedule: Q04DX003 (ip), vehicle: saline) 104 % of control; under setting [4], 90 % of control; under setting [5], 90 % of control. Under “dose: 150.0 mg/kg/injection, schedule: Q04DX003 (ip), vehicle: saline”, the T/C was 109 % of control.
`CCOC(=O)c1c[nH]c2ccccc2c1=O`: the T/C was 107 % of control (dose: 100.0 mg/kg/injection, schedule: Q04DX002 (ip), vehicle: saline); 111 % of control (dose: 200.0 mg/kg/injection, schedule: Q04DX002 (ip), vehicle: saline); 102 % of control (dose: 400.0 mg/kg/injection, schedule: Q04DX002 (ip), vehicle: saline).
For the molecule `Cc1c2oc3c(C)ccc(C(=O)NCc4ccccc4)c3nc-2c(C(=O)NCc2ccccc2)c(N)c1=O`, the T/C (dose: 100.0 mg/kg/injection, schedule: Q04DX002 (sc), vehicle: olive oil, sesame oil, peanut oil) is 99 % of control; the T/C (dose: 200.0 mg/kg/injection, schedule: Q04DX002 (sc), vehicle: olive oil, sesame oil, peanut oil) is 98 % of control; the T/C (dose: 400.0 mg/kg/injection, schedule: Q04DX002 (sc), vehicle: olive oil, sesame oil, peanut oil) was 101 % of control.
For `O=C1CCC23/C=C/C(=O)NCCCCNCCCNC(=O)/C=C/c4ccc(c2c4)OC3C1` (stereo unspecified), the T/C was 105 % of control under setting [7], 105 % of control under setting [5] and 105 % of control under setting [6].
For `C=CCN(CC=C)c1ccccc1`, the T/C (dose: 100.0 mg/kg/injection, schedule: Q01DX009 (ip), vehicle: Klucel (hydroxypropylcellulose) (HPC)) was 104 % of control; the T/C (dose: 100.0 mg/kg/injection, schedule: Q04DX003 (ip), vehicle: Klucel (hydroxypropylcellulose) (HPC)) was 100 % of control; the T/C (dose: 200.0 mg/kg/injection, schedule: Q01DX009 (ip), vehicle: Klucel (hydroxypropylcellulose) (HPC)) is 109 % of control; the T/C (dose: 200.0 mg/kg/injection, schedule: Q04DX003 (ip), vehicle: Klucel (hydroxypropylcellulose) (HPC)) was 100 % of control; the T/C (dose: 400.0 mg/kg/injection, schedule: Q01DX009 (ip), vehicle: Klucel (hydroxypropylcellulose) (HPC)) is 122 % of control; the T/C (dose: 400.0 mg/kg/injection, schedule: Q04DX003 (ip), vehicle: Klucel (hydroxypropylcellulose) (HPC)) was 112 % of control.
For `CC/C(=N\NS(=O)(=O)c1ccc(C)cc1)c1ccc(OC)c(OC)c1`, the T/C under setting [3] is 96 % of control; the T/C under setting [4] was 96 % of control; the T/C (dose: 200.0 mg/kg/injection, schedule: Q01DX009 (ip), vehicle: saline) is 92 % of control.
As to `C=CCN(CC=C)P(=O)(N1CC1)N1CC1C` (stereo unspecified), the T/C is 120 % of control (dose: 0.25 mg/kg/injection, schedule: Q04DX003 (ip), vehicle: saline); 100 % of control (dose: 0.31 mg/kg/injection, schedule: Q01DX009 (ip), vehicle: saline); 156 % of control and 158 % of control (dose: 0.5 mg/kg/injection, schedule: Q01DX009 (ip), vehicle: saline); 150 % of control and 166 % of control and 173 % of control (dose: 0.83 mg/kg/injection, schedule: Q01DX009 (ip), vehicle: saline); 159 % of control (dose: 1.65 mg/kg/injection, schedule: Q04DX003 (ip), vehicle: saline); 91 % of control (dose: 1.8 mg/kg/injection, schedule: Q01DX009 (ip), vehicle: saline). The T/C runs as follows: (dose: 2.5 mg/kg/injection, schedule: Q04DX003 (ip), vehicle: saline) 163 % of control and 190 % of control; (dose: 3.75 mg/kg/injection, schedule: Q04DX003 (ip), vehicle: saline) 163 % of control; (dose: 5.0 mg/kg/injection, schedule: Q04DX003 (ip), vehicle: saline) 90 % of control.
In the case of `Cc1cc(NC(=O)NCCOc2ccc(N3C(N)=NC(N)=NC3(C)C)cc2Cl)ccc1S(=O)(=O)F`, the T/C under setting [1] is 100 % of control, the T/C under setting [2] was 113 % of control and the T/C under setting [3] was 122 % of control.
